Here are results for five substances from patent US10696972B2, “Method for improving learning” (St. Jude Children's Research Hospital, Inc., priority 2015, dated 2020).

One data set deals with A1R mRNA. Put plainly: Cortical map plasticity in the ACx after passive tone exposure, A1R shRNA knock-down. It is filed as in vivo, mouse. The conditions noted are these: adult WT mice, shRNA injected into auditory thalamus (MGv), passive exposure to a 9.8-kHz tone. On the procedure: (§1) Mice were housed in ventilated sound-proof chambers with ad libitum food and water and maintained on a 12:12 hour light:dark cycle. Mice were exposed to continuous sound stimulation for 5 to 14 days, consisting of repeated trains of tones. Each train consisted of 5 tones delivered at 5 Hz. A pure tone of certain frequencies (7 kHz, 7.9 kHz, 9.8 kHz, 11.4 kHz, or 16.4 kHz) was used. The tone duration was 50 ms with 5-ms cosine onset/offset ramps at 70-dB sound pressure level (SPL). Trains were separated by 1 s. Naïve (nonexposed) mice were housed in a similar fashion but received no sound stimulation.
Mice were anesthetized with sodium pentobarbital (50 mg/kg) and chlorprothixene (0.2 mg) followed by supplemental doses of sodium pentobarbital (15-25 mg/kg supplements as needed). Spike responses to sound stimulation were recorded from the primary (A1) ACx (depth, 350-420 μm from the pial surface) with Epoxylite-coated tungsten microelectrodes (2.0 MΩ at 1 kHz; FHC, Brunswick, Me.). Frequency response areas (FRAs) were measured with randomly presented tone pips of varying frequency (4.0-44.6 kHz in 0.1-octave increments, 20-ms duration, 5-ms raised cosine onset/offset ramps, 500-ms intertone interval) and level (0- to 70-dB SPL in 10-dB increments). Tones were generated by an electrostatic speaker [Tucker-Davis Technologies (TDT), Alachua, Fla.], which was placed 10 cm from the contralateral ear of the mouse. The ipsilateral ear was plugged with agar. Spike responses to tone pips were amplified with an RA4PA fiber optic preamplifier, filtered (high pass=250 Hz, low pass=5000 Hz), and digitized with an RZ6 real-time processor (TDT). The threshold for spike detection was set at a signal-to-noise ratio of 3:1. TDT System 3 software (OpenEx) controlled both sound stimulus generation and response acquisition and was used for data storage. Cortical maps in the A1 were generated from FRAs measured at 30 to 40 sites per mouse, each separated by 50 to 100 μm. FRAs were analyzed with TDT System 3 software (Open Explorer) for characteristic frequencies (CFs) collated in bins of 0.22 octaves. […]

The test system of another data set is Nt5e. Put plainly: Cortical map plasticity in the ACx after passive tone exposure, Nt5e shRNA knock-down. Type of data set: in vivo, mouse. As to conditions: mature WT mice, shRNA injected into auditory thalamus, exposed to 11.4 kHz. On the procedure: as §1
Mice were anesthetized with sodium pentobarbital (50 mg/kg) and chlorprothixene (0.2 mg) followed by supplemental doses of sodium pentobarbital (15-25 mg/kg supplements as needed). Spike responses to sound stimulation were recorded from the primary (A1) ACx (depth, 350-420 μm from the pial surface) with Epoxylite-coated tungsten microelectrodes (2.0 MΩ at 1 kHz; FHC, Brunswick, Me.). Frequency response areas (FRAs) were measured with randomly presented tone pips of varying frequency (4.0-44.6 kHz in 0.1-octave increments, 20-ms duration, 5-ms raised cosine onset/offset ramps, 500-ms intertone interval) and level (0- to 70-dB SPL in 10-dB increments). […] Cortical maps in the A1 were generated from FRAs measured at 30 to 40 sites per mouse, each separated by 50 to 100 μm. […]

As for “A1R shRNA (123): shRNA against A1R mRNA, lentivector; coding DNA 5′-CGATGCTACCTTCTGCTTCATCGTATCCC-3′ (SEQ ID NO: 10)”, in the data set on A1R mRNA, the ACx map plasticity result is given as “sufficient to induce ACx map plasticity”.
Take “A1R shRNA (789): shRNA against A1R mRNA, lentivector; coding DNA 5′-CCAGAAACCCAGCATCCTCATCTACATTG-3′ (SEQ ID NO: 11)”: in the data set with A1R mRNA, the ACx map plasticity result is listed as “sufficient to induce ACx map plasticity”.
For “Nt5e shRNA (1264): shRNA against Nt5e, lentivector; coding DNA 5′-ACATTTGACCTCGTCCAATTAAAAGGGTC-3′ (SEQ ID NO: 12)”, the “percentage of sites with a CF of 11.4 kHz compared to naïve mice” value in the data set with Nt5e is “significantly larger percentage of sites with a CF of 11.4 kHz”.
“Nt5e shRNA (1366): shRNA against Nt5e, lentivector; coding DNA 5′-GGAATCCATGTGGTGTACGATATTAACCG-3′ (SEQ ID NO: 13)”: the “percentage of sites with a CF of 11.4 kHz compared to naïve mice” value in the data set with Nt5e was “significantly larger percentage of sites with a CF of 11.4 kHz”.
Regarding “scrambled (control) shRNA: scrambled control shRNA; coding DNA 5′-TACGTCCAAGGTCGGGCAGGAAGA-3′ (SEQ ID NO: 9) [reference compound]”, in the data set on A1R mRNA, the ACx map plasticity entry is recorded as “no cortical map plasticity”.
